Results taken from the NIST ThermoML archive (doi:10.1016/j.fluid.2013.07.002).
Numbers after ± are expanded uncertainties.

Details: Crystal; visual observation

CCCCCCCCCCCCCCCCCCO [1-octadecanol]
Normal melting temperature: 58 ± 0.39 °C
